From patent US20100093760A1, “METHODS FOR IDENTIFYING COMPOUNDS THAT MODULATE CELL SIGNALING AND METHODS EMPLOYING SUCH COMPOUNDS” (The General Hospital Corporation, priority 2006, published 2010)
“Also recorded” adds a separate entry of the source. Read-outs that look alike come from different tables or passages of the source.

Experiments:
[1] = tested on: zebrafish embryos; assay type: in vivo; settings: zebrafish, in vivo
Procedure: According to one example of the whole animal-based screening methods of the invention, 1-2 hour old zebrafish embryos are arrayed in the wells of 96-well plates, three embryos per well. A chemical library, which is comprised of tens of thousands of diverse small molecules, is then pin-transferred into the wells at a final concentration of ˜2 to 10 uM. Embryos are observed over the course of next 24-48 hours and scored under a dissecting microscope for phenotype consistent with loss of BMP signaling (dorsalized embryos, FIG. 1) or with the loss of nodal signaling (cyclopia, FIG. 2).
Small molecule screening in zebrafish was performed as previously described (Peterson et al., Nat. Biotechnol. 22:595-599, 2004) with several modifications. Pairs of wild-type zebrafish were mated, and newly-fertilized eggs were arrayed in triplicate in 96-well plates containing E3 buffer. At 4 hours post fertilization (hpf), compounds were added to wells at 5-10 μM. Embryos were incubated at 28.5° C., and gross morphology of embryos was examined at 12, 24, and 48 hpf for dorsalization or ventralization of embryonic axis, as previously described (Mullins et al., Development 123:81-93, 1996). In total, 7,570 compounds were screened, including synthetic screening compounds (Chembridge Corporation, 5,580 small molecules) and known bioactive compounds (Microsource Discovery Systems, 1,840 small molecules and Sigma-Aldrich, 150 small molecules). For follow up studies, Compound C/Dorsomorphin and Ara-A (adenine 9-β-D-arabinofurano-side) were purchased from Sigma (St. Louis, Mo.), and C75 was purchased from EMD Biosciences (San Diego, Calif.).

[2] = tested on: hepcidin (HAMP) and Id1 mRNA; test: Hepcidin and Id1 mRNA qRT-PCR in Hep3B cells; assay type: cell-based, human
Procedure: Quantitative RT-PCR was performed for mRNA encoding Id1 or human hepcidin (HAMP) as previously described (Babitt et al., Nat. Genet. 38:531-539, 2006; Yu et al., J. Biol. Chem. 280:24443-24450, 2005), and normalized to 18S ribosomal RNA (rRNA) or β-actin mRNA levels.

[3] = tested on: zebrafish embryos; assay type: in vivo; settings: for phenotype: 8 ng of either morpholino alone, 24 hpf; for % Dorsalized / Dorsalized, number of embryos / Early lethality, number of embryos / Total survivors: treatment at 3 hpf
[4] = tested on: MAPK p38; test: Immunoblot of BMP4-mediated MAPK p38 phosphorylation in PASMCs; assay type: cell-based, murine; settings: noggin 100-200 ng/ml pretreatment 30 minutes
[5] = tested on: BMP-mediated SMAD1/5/8 phosphorylation; test: Immunoblot of BMP-induced SMAD1/5/8 phosphorylation in PASMCs; assay type: cell-based, murine; settings: PASMCs, noggin 100-200 ng/ml pretreatment 30 minutes
Procedure: Wild-type and BMPR-II-deficient PASMC were isolated as previously described (Yu et al., J. Biol. Chem. 280:24443-24450, 2005), and cultured in RPMI medium (Invitrogen) supplemented with 10% FBS. C2C12 cells (American Type Culture Collection, Manassas, Va.) were cultured in DMEM supplemented with glutamine and 10% FBS. HepG2 cells and Hep3B cells (ATCC) were cultured in Minimal Essential Alpha Medium with L-glutamine (α-MEM, Invitrogen) containing 10% FBS. For studies of SMAD activation in vitro, PASMC were incubated in 0.5% FCS RPMI for 24 hours, followed by preincubation with drug compounds, noggin, or vehicle for 30 minutes, followed the addition of recombinant BMPs 2, 4, 6, or 7, or TGF-β1 or Activin A (R&D Systems, Minneapolis, Minn.) for 30 minutes.
Cell extracts or tissues were mechanically homogenized in SDS-lysis buffer (62.5 mM Tris-HCl (pH 6.8), 2% SDS, 10% glycerol, 50 mM DTT, 0.01% bromophenol blue); separated by SDS-PAGE; immunoblotted with anti-phospho-SMAD1/5/8, anti-phospho-SMAD2 (Cell Signaling, Beverly, Mass.), or anti-α-tubulin (Upstate/Millipore, Billerica, Mass.) Abs; and visualized using ECL Plus (GE Healthcare, Piscataway, N.J.). Levels of immunoreactive proteins were quantitated by ImageQuant software on a Storm phosphorimager (GE Healthcare).
The statistical significance of compared measurements was measured using the student's two-tailed T-test or one-way ANOVA with Bonferroni correction. Hill plot analysis of Compound C/Dorsomorphin inhibition of SMAD1/5/8 phosphorylation was performed using GraFit software (Erithacus Software, Surrey, England).

## Nc1ncnc2c1ncn2[C@@H]1O[C@H](CO)[C@@H](O)[C@@H]1O [Ara-A, adenine 9-β-D-arabinofurano-side, reference compound]
[1]
  dorsalization by structurally-unrelated inhibitors of AMPK activity: did not dorsalize zebrafish embryos
  toxicity of structurally-unrelated inhibitors of AMPK activity: non-specific toxicity such as developmental delay and death
[2]; Ara-A 250 μM 30 minutes before BMP4 20 ng/ml
  effect on BMP4-induced hepcidin mRNA expression: did not impair; also recorded: did not significantly affect
[2]; Ara-A 250 μM alone
  lowering of baseline hepcidin expression: 40%

## αA: splice-targeting morpholino against zebrafish AMPK α-subunit ortholog αA (CACCCTGGAAAGTT TTACCTTTGAC) (antisense CACCCTGGAAAGTTTTACCTTTGAC; all phosphorodiamidate morpholino (PMO)) [reference compound]
[3]
  phenotype: did not exhibit any phenotype

## NC(=O)c1ccc(-c2nc(-c3ccc4c(c3)OCO4)c(-c3ccccn3)[nH]2)cc1 [SB-431542, reference compound]
[3]; known specific inhibitor of the TGF-β/activin/nodal branch
  zebrafish embryo phenotype: cyclopia, but not dorsalization

## αB: splice-targeting morpholino against zebrafish AMPK α-subunit ortholog αB (TAAATGAACA GACTTAACTCTTCAC) (antisense TAAATGAACAGACTTAACTCTTCAC; all phosphorodiamidate morpholino (PMO)) [reference compound]
[3]
  phenotype: did not exhibit any phenotype

## C=C1C(=O)OC(CCCCCCCC)C1C(=O)O (stereo not shown) [Compound C75, reference compound]
[1]
  dorsalization by structurally-unrelated inhibitors of AMPK activity: did not dorsalize zebrafish embryos
  toxicity of structurally-unrelated inhibitors of AMPK activity: non-specific toxicity such as developmental delay and death
[3]; C75 4 μM
  % Dorsalized: 0%
  Dorsalized, number of embryos: 0
  Early lethality, number of embryos: 0
  Total survivors: 20
[3]; C75 20 μM
  % Dorsalized: 0%
  Dorsalized, number of embryos: 0
  Early lethality, number of embryos: 0
  Total survivors: 40
[3]; C75 40 μM
  % Dorsalized: 0%
  Dorsalized, number of embryos: 0
  Early lethality, number of embryos: 0
  Total survivors: 40
[3]; C75 100 μM
  % Dorsalized: 0%
  Dorsalized, number of embryos: 0
  Early lethality, number of embryos: 20
  Total survivors: 0
[3]; C75 200 μM
  % Dorsalized: 0%
  Dorsalized, number of embryos: 0
  Early lethality, number of embryos: 40
  Total survivors: 0
[3]; C75 400 μM
  % Dorsalized: 0%
  Dorsalized, number of embryos: 0
  Early lethality, number of embryos: 40
  Total survivors: 0
[3]; C75, any concentration tested (1-100 μg/ml), from 3 hpf
  dorsalization phenotype: without evidence of dorsalization

B1: noggin: soluble BMP antagonist; preferential inhibitor of BMP2 and BMP4 activity (protein, UniProt Q13253 28-232, looked up)
Noggin: QHYLHIRPAPSDNLPLVDLIEHPDPIFDPKEKDLNETLLRSLLGGHYDPGFMATSPPEDRPGGGGGAAGGAEDLAELDQLLRQRPSGAMPSEIKGLEFSEGLAQGKKQRLSKKLRRKLQMWLWSQTFCPVLYAWNDLGSRFWPRYVKVGSCFSKRSCSVPEGMVCKPSKSVHLTVLRWRCQRRGGQRCGWIPIQYPIISECKCSC
[4]
  effect on BMP4-mediated phosphorylation of MAPK p38: inhibited
[5]
  effect on BMP4-mediated phosphorylation of SMAD1/5/8: inhibited

B2: BMP4: recombinant bone morphogenetic protein ligand (R&D Systems) (protein, UniProt P12644 293-408, looked up)
Bone morphogenetic protein 4: SPKHHSQRARKKNKNCRRHSLYVDFSDVGWNDWIVAPPGYQAFYCHGDCPFPLADHLNSTNHAIVQTLVNSVNSSIPKACCVPTELSAISMLYLDEYDKVVLKNYQEMVVEGCGCR
[2]; BMP4 20 ng/ml, four hours
  increase in hepcidin mRNA: 35 fold
